We go through two molecules from patent publication US12550885B2, “Red blood cell storage solutions, solution additives, and methods for improving the storage of red blood cells” (University of Cincinnati, priority 2016, dated 2026).

One test relates to C57BL/6 mice. The test can be described thus: Lung inflammation after transfusion of aged pRBCs, histology (edema, Gr1 inflammatory cells, ZO1 tight junctions). The conditions noted are these: 200 μl IV aged pRBCs treated with 125 μM AT, lungs taken 6 hours after transfusion. It is filed as in vivo, mouse. As to the method:
Male C57BL/6 mice aged 8-10 weeks were purchased from Jackson Laboratories, fed standard laboratory diet and water ad libitum, and acclimated for 1 week in climate-controlled conditions with 12 hours light-dark cycles prior to use. Asm-deficient mice (Asm^−/−) on a C57BL/6 background were used and compared to syngenic C57Bl/6 wild type mice as controls. All experiments were approved by the Institutional Animal Care and Use Committee at the University of Cincinnati. To study the effect of AT treatment on lung inflammation following blood transfusion, mice received 200 μl IV injections of pRBCs or MPs. Lungs were taken 6 hours after transfusion for either histologic or Evans blue evaluation. Histologic lung sections were examined for evidence of lung edema with hematoxylin and inflammatory cells with anti-Gr1 antibodies (AbD Serotec, Raleigh, NC). Tight junction integrity was assessed by staining lung slides with Cy3-conjugated anti-ZO1 (Jackson ImmunoResearch, West Grove, PA). Endothelial cell permeability was assessed using the Evans blue method (source). In brief, mice were weighed and injected with 30 mg/kg Evans blue. After 10 minute of circulation time, mice were sacrificed and the pulmonary vasculature was flushed with 10 ml PBS. Lungs were dried at 55° C. for 24 hours and then incubated in 500 μl formamide for 48 hours at 55° C. Evans blue extraction calculated by measuring the optical density at 620 nm and comparing to a standard curve, and values were normalized to dry lung weight.

For test [1], the system named is mouse pRBCs. The test can be described thus: Microparticle formation in stored mouse pRBCs (Nanoparticle Tracking Analysis). The format is cell-based. The conditions noted are these: mouse pRBCs stored at 4° C. for 14 days, inhibitor added prior to storage. As to the method:
(§1) Human pRBCs were obtained from Hoxworth Blood Bank (Cincinnati, OH) and stored at 4° C. for 42 days according to standard blood banking practice. Murine pRBCs were obtained as previously described. Briefly, donor mice were anesthetized with intraperitoneal pentobarbital (0.1 mg/g body weight) and blood was collected via cardiac puncture into CP2D anticoagulant-coated syringes. CP2D was then added to the whole blood in a 1:7 ratio and gently mixed. Whole blood was centrifuged at 1,000 g for 10 minutes at 4° C. and platelet-rich plasma was discarded. Storage solution (AS-3) was added to erythrocytes in a 2:9 ratio using the original whole blood volume. Units were stored at 4° C. for 14 days.
(§2) Erythrocytes were pelleted from pRBC samples at 2,000 g for 10 minutes at 4° C. The supernatant from this spin was then centrifuged at 10,000 g for 10 minutes at 4° C. to pellet any remaining cells or platelets. The MP-rich supernatant from this second spin was used to characterize MP production and hemolysis. MPs were pelleted using a 20,000 g spin for 30 minutes at 4° C.

Test [2] concerns mouse pRBCs. As to the kind of experiment: Hemolysis (cell-free hemoglobin) in stored mouse pRBCs. It is filed as cell-based. The conditions noted are these: mouse pRBCs stored at 4° C. for 14 days, inhibitor added prior to storage. As to the method: as §1
(§3) Erythrocytes were pelleted from pRBC samples at 2,000 g for 10 minutes at 4° C. The supernatant from this spin was then centrifuged at 10,000 g for 10 minutes at 4° C. to pellet any remaining cells or platelets. The MP-rich supernatant from this second spin was used to characterize MP production and hemolysis. […]
(§4) Hemoglobin in the MP-rich supernatant was quantified using a Coulter AcT diff Analyzer (Beckman Coulter Corp., Brea, CA). Cell size (forward scatter), complexity (side scatter), phosphatidylserine exposure (annexin V positivity), and band 3 protein integrity (eosin-5-maleimide^68) were analyzed using an Attune flow cytometer (Life Technologies, Carlsbad, CA). […]

For test [3], the system named is human pRBCs. As to the kind of experiment: Hemolysis (cell-free hemoglobin) in stored human pRBCs. The format is cell-based. The conditions noted are these: human pRBCs stored at 4° C., increasing AT concentration. On the procedure: as §1, §3, §4
A further test has as its system mouse erythrocytes. The test can be described thus: Erythrocyte characterization by flow cytometry (size, complexity, phosphatidylserine exposure, band 3 integrity). The format is cell-based. As to the method:
as §1
Hemoglobin in the MP-rich supernatant was quantified using a Coulter AcT diff Analyzer (Beckman Coulter Corp., Brea, CA). Cell size (forward scatter), complexity (side scatter), phosphatidylserine exposure (annexin V positivity), and band 3 protein integrity (eosin-5-maleimide^68) were analyzed using an Attune flow cytometer (Life Technologies, Carlsbad, CA). Antibodies for ter119, CD235a, CD41, CD45, and Annexin V were acquired from BD Biosciences (San Diego, CA), and eosin-5-maleimide was obtained from Life Technologies (Carlsbad, CA).
On the technique in general: In flow cytometry, cells or beads pass a laser one at a time.

The test system of test [4] is human pRBCs. As to the kind of experiment: Microparticle formation in stored human pRBCs (Nanoparticle Tracking Analysis). It is filed as cell-based. The conditions noted are these: human pRBCs stored at 4° C., increasing doses added prior to storage. As to the method: as §1, §2

On to `CN(C)CCC=C1c2ccccc2CCc2ccccc21` [AT, Amitriptyline], for which, in the test with C57BL/6 mice, the “disruption of tight junctions in the lung (ZO1)” value was “mitigated”, the “inflammatory cell recruitment to the lungs” value is reported as “greatly reduced” and the lung edema result is recorded as “greatly reduced”. In addition, the MP formation result in the test with mouse pRBCs [1] is recorded as “dose-dependent reduction of MP formation”. In addition, in the test with mouse pRBCs [2], the “hemolysis (cell-free hemoglobin)” value is on record as “dose-dependent reduction in hemolysis”. The “hemolysis (cell-free hemoglobin)” value in the test with human pRBCs [3] is reported as “dose-dependent reduction in hemolysis”. Besides, the “age-related phosphatidylserine expression (annexin V positivity)” value in the test on mouse erythrocytes (aged mouse erythrocytes) was “reduced this age-related phosphatidylserine expression in a dose dependent manner”. Moreover, the “age-related decrease in cell complexity (side scatter)” value in the test on mouse erythrocytes (stored mouse erythrocytes) is given as “mitigated”. In addition, in the test with mouse erythrocytes (stored mouse erythrocytes, 125 μM AT), the “reduction of band 3 degradation (eosin-5-maleimide)” value is listed as roughly 50%. In addition, in the test on mouse erythrocytes (stored mouse pRBCs), the “age-related decrease in cell size (forward scatter)” value is “mitigated”. Moreover, the MP formation result in the test on human pRBCs [4] is “dose-dependent reduction of MP formation”.
On to `CNCCC(Oc1ccc(C(F)(F)F)cc1)c1ccccc1` (stereo not drawn) [Fluoxetine], for which the “hemolysis (cell-free hemoglobin)” value in the test on mouse pRBCs [2] is “reduced hemolysis”.
